Among the data in patent US12391674B2, “Heterocyclic compounds for the treatment of epilepsy” (OTSUKA PHARMACEUTICAL CO., LTD., priority 2018, dated 2025) are inhibition in vivo and Motor dysfunction values, retold here.

The test system of one data set is DBA/2 mice. In words: Audiogenic seizure model. The settings on record: Mus musculus, DBA/2 mice, oral, auditory stimulation 1 hour after administration, read-out: Seizure suppression. The class given is in vivo. The method in brief: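 Male and female DBA/2 mice (3 weeks old, 8/group) dosed orally at 30 mg/kg in 5% gum arabic; 1 h later exposed to 12.6 kHz, 100-110 dB tone for 1 min or until tonic seizure. Maximum seizure score (0–4) recorded; suppression rate graded A (≥90%), B (70–<90%), C (50–<70%).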

Another data set relates to ICR mice. Put plainly: Rotarod test (motor coordination). The class given is in vivo, mouse. The settings on record: oral, rotarod 1 hour after administration. Here is the method: This test is performed to evaluate the effect of the compound on the motor coordination. In this test example, the example compounds shown in Table 4 below were used as test compounds. Male ICR mice (Japan SLC, Inc., 5-6 weeks, 8 per group) were trained to remain on a fixed speed (15 rpm) rotating rod of rotarod apparatus (Muromachi Kikai Co., Ltd.) for 2 minutes. […] After 1 hour of oral administration, the mice were again placed on the rod accelerated from 4 rpm to 40 rpm over 5 minutes and the latency to fall off the rod was recorded for 200 seconds. The falling latency of the compound administration group was calculated as a relative value relative to the average value of the falling latency in the solvent administration group. Here, a coordination disorder of 25% or less was expressed as “A”, and a coordination disorder of more than 25% and 50% or less was expressed as “B”.

On to `COc1ccc(-c2cnc(Oc3ccccc3)nc2)nn1` [Example 1, 3-Methoxy-6-(2-Phenoxypyrimidin-5-Yl)Pyridazine], for which the inhibition in vivo at 5 mg/kg in the data set on DBA/2 mice is more than 90%. For the same compound, the Motor dysfunction entry in the data set with ICR mice (dose 5 mg/kg) was “A (a coordination disorder of 25% or less)”. In the case of `Cc1ccc(-c2cnc(Oc3ccccc3)nc2)nn1` [Example 2], in the data set on DBA/2 mice, the inhibition in vivo at 30 mg/kg is more than 90%. The Motor dysfunction result in the data set on ICR mice (dose 10 mg/kg) was “A (a coordination disorder of 25% or less)”. For `COc1ccc(-c2cnc(Oc3ccccc3F)nc2)nn1` [Example 3], the inhibition in vivo at 5 mg/kg in the data set with DBA/2 mice was more than 90%. Moreover, the Motor dysfunction entry in the data set with ICR mice (dose 10 mg/kg) is listed as “A (a coordination disorder of 25% or less)”.

On to `COc1ccc(-c2cnc(Oc3cccc(F)c3)nc2)nn1` [Example 4, 3-(2-(3-Fluorophenoxy)Pyrimidin-5-Yl)-6-Methoxypyridazine], for which the inhibition in vivo at 5 mg/kg with DBA/2 mice was more than 90%. The Motor dysfunction result with ICR mice (dose 5 mg/kg) was “A (a coordination disorder of 25% or less)”. The like results for `COc1ccc(-c2cnc(Oc3ccc(F)cc3)nc2)nn1` [Example 5] were, in that order, more than 90% and “A (a coordination disorder of 25% or less)”. The corresponding values for `COc1ccc(-c2cnc(Oc3ccccc3)nc2)cn1` [Example 6, 5-(6-Methoxypyridin-3-Yl)-2-Phenoxypyrimidine] are more than 90% and “A (a coordination disorder of 25% or less)”. The like results for `c1ccc(Oc2ncc(-c3cccnc3)cn2)cc1` [Example 7, 2-Phenoxy-5-(Pyridin-3-Yl)Pyrimidine] were, in that order, more than 90% and “A (a coordination disorder of 25% or less)”.

Regarding `Cc1ccc(-c2cnc(Oc3ccccc3)nc2)cn1` [Example 8], the inhibition in vivo at 10 mg/kg in the data set with DBA/2 mice (dose 10 mg/kg) is more than 90%. The Motor dysfunction entry with ICR mice (dose 10 mg/kg) was “A (a coordination disorder of 25% or less)”. For `c1ccc(Oc2ncc(-c3ccncn3)cn2)cc1` [Example 10], the inhibition in vivo at 30 mg/kg with DBA/2 mice is more than 90%. Further, in the data set with ICR mice (dose 30 mg/kg), the Motor dysfunction result is given as “A (a coordination disorder of 25% or less)”. With `[O-][n+]1cccc(-c2cnc(Oc3ccccc3)nc2)c1` [Example 11, 3-(2-Phenoxypyrimidin-5-Yl)Pyridine 1-Oxide], the inhibition in vivo at 5 mg/kg in the data set on DBA/2 mice was more than 90%. In addition, the Motor dysfunction entry in the data set with ICR mice (dose 5 mg/kg) is reported as “A (a coordination disorder of 25% or less)”.

In the case of `Cc1cc(-c2cnc(Oc3ccccc3)nc2)ccn1` [Example 22], in the data set with DBA/2 mice, the inhibition in vivo at 5 mg/kg was more than 90%. In the data set with ICR mice (dose 5 mg/kg), the Motor dysfunction result was “A (a coordination disorder of 25% or less)”. For `Nc1ccc(-c2cnc(Oc3cccc(F)c3)nc2)nn1` [Example 24, 6-(2-(3-Fluorophenoxy)Pyrimidin-5-Yl)Pyridazin-3-Amine], the inhibition in vivo at 5 mg/kg in the data set on DBA/2 mice is more than 90%. Besides, the Motor dysfunction entry with ICR mice (dose 5 mg/kg) is recorded as “A (a coordination disorder of 25% or less)”. With `Nc1ccc(-c2cnc(Oc3ccccc3F)nc2)nn1` [Example 26], the inhibition in vivo at 5 mg/kg in the data set with DBA/2 mice is more than 90%. The Motor dysfunction result in the data set on ICR mice (dose 5 mg/kg) is recorded as “A (a coordination disorder of 25% or less)”. Consider `FC(F)(F)c1ccc(-c2cnc(Oc3ccccc3)nc2)cn1` [Example 27], for which, in the data set with DBA/2 mice, the inhibition in vivo at 30 mg/kg is more than 90%. For the same compound, the Motor dysfunction result with ICR mice (dose 30 mg/kg) is reported as “A (a coordination disorder of 25% or less)”. In the case of `Nc1ccc(-c2cnc(Oc3ccccc3)nc2)nn1` [Example 30, 6-(2-Phenoxypyrimidin-5-Yl)Pyridazin-3-Amine], the inhibition in vivo at 5 mg/kg with DBA/2 mice is more than 90%. Further, the Motor dysfunction result in the data set with ICR mice (dose 5 mg/kg) is “A (a coordination disorder of 25% or less)”. In the case of `c1ccc(Oc2ncc(-c3ccnnc3)cn2)cc1` [Example 31], the inhibition in vivo at 5 mg/kg with DBA/2 mice was more than 90%. The Motor dysfunction result with ICR mice (dose 5 mg/kg) was “A (a coordination disorder of 25% or less)”.

With `Fc1ccc(-c2cnc(Oc3ccccc3)nc2)cn1` [Example 33], in the data set with DBA/2 mice, the inhibition in vivo at 5 mg/kg is more than 90%. The Motor dysfunction entry in the data set with ICR mice (dose 30 mg/kg) was “A (a coordination disorder of 25% or less)”.

Take `Cc1ncccc1-c1cnc(Oc2ccccc2)nc1` [Example 34]: the inhibition in vivo at 30 mg/kg in the data set with DBA/2 mice is more than 90%. Further, the Motor dysfunction entry with ICR mice (dose 30 mg/kg) is listed as “A (a coordination disorder of 25% or less)”. Take `Nc1ccc(-c2cnc(Oc3ccccc3)nc2)cn1` [Example 36, 5-(2-Phenoxypyrimidin-5-Yl)Pyridin-2-Amine]: the inhibition in vivo at 5 mg/kg in the data set on DBA/2 mice is more than 90%. The Motor dysfunction result in the data set with ICR mice (dose 5 mg/kg) is reported as “A (a coordination disorder of 25% or less)”. As to `O=C1CCN(c2ccc(Oc3cccc(OC(F)(F)F)c3)cc2)C(=O)N1` [Example 306], the Motor dysfunction result with ICR mice (dose 30 mg/kg) is recorded as “A (a coordination disorder of 25% or less)”. With `O=C1CCN(c2cccc(Oc3ccc(F)cc3)c2)C(=O)N1` [Example 315], the inhibition in vivo at 30 mg/kg with DBA/2 mice lay in the range of 70 to 90%. On to `O=C1CCN(c2ccc(Oc3ccc(S(F)(F)(F)(F)F)cc3)cc2)C(=O)N1` [Example 317], for which the inhibition in vivo at 30 mg/kg with DBA/2 mice was in the range of 50 to 70%. Still for that read-out and setting: under `O=C1CCN(c2ccc(Oc3cccnc3)cc2)C(=O)N1` [Example 318] stands 50 to 70%; under `O=C1CCN(c2ccc(OC(F)(F)F)cc2)C(=O)N1` [Example 319], 50 to 70%; under `O=C1CCN(c2ccc(Oc3cccc(F)n3)cc2)C(=O)N1` [Example 321, 1-[4-(6-Fluoropyridin-2-Yloxy)Phenyl]Dihydropyrimidine-2,4 (1H,3H)-Dione], 50 to 70%.

`O=c1ccn(-c2ccc(Oc3ccccc3)cc2)c(=O)[nH]1` [Example 322, 1-(4-Phenoxyphenyl)Pyrimidine-2,4 (1H,3H)-Dione]: the inhibition in vivo at 30 mg/kg in the data set on DBA/2 mice was in the range of 50 to 70%. With `Cc1cc(Oc2ccccc2)ccc1N1CCC(=O)NC1=O` [Example 324], the inhibition in vivo at 30 mg/kg with DBA/2 mice lay in the range of 50 to 70%. Regarding `Cc1nc(Oc2ccccc2)ccc1N1CCC(=O)NC1=O` [Example 326], the inhibition in vivo at 30 mg/kg in the data set with DBA/2 mice was in the range of 50 to 70%.

On to `O=C1CCN(c2ccc(-c3ccccc3)cc2)C(=O)N1` [Example 327, 1-((1,1′-Biphenyl)-4-Yl)Dihydropyrimidine-2,4 (1H,3H)-Dione], for which the inhibition in vivo at 30 mg/kg in the data set with DBA/2 mice fell in the range of 50 to 70%. `O=C1CCN(c2cc(F)c(Oc3ccccc3)c(F)c2)C(=O)N1` [Example 330]: the inhibition in vivo at 30 mg/kg with DBA/2 mice fell in the range of 50 to 70%. Same read-out and setting: next, `Cc1cc(Oc2cccc(F)c2)ccc1N1CCC(=O)NC1=O` [Example 334]: 50 to 70%; `Cc1cc(Oc2cccc(C(F)(F)F)c2)ccc1N1CCC(=O)NC1=O` [Example 335]: 70 to 90%; `O=C1CCN(c2ccc(Cc3ccc(F)cc3)cc2)C(=O)N1` [Example 338]: 50 to 70%. Same read-out and setting: under `O=C1CCN(c2ccc(Cc3cccc(OC(F)(F)F)c3)cc2)C(=O)N1` [Example 339] stands 70 to 90%. With `O=C1CCN(c2ccc(Cc3cccc(C(F)(F)F)c3)cc2)C(=O)N1` [Example 341], in the data set on DBA/2 mice, the inhibition in vivo at 30 mg/kg was in the range of 50 to 70%.

In the case of `O=C1CCN(c2ccc(Cc3ccc(C(F)(F)F)cc3)cc2)C(=O)N1` [Example 342], the inhibition in vivo at 30 mg/kg in the data set with DBA/2 mice lay in the range of 50 to 70%.

On to `O=C1CCN(c2ccc(Oc3cc(F)cc(F)c3)cc2)C(=O)N1` [Example 344], for which the inhibition in vivo at 30 mg/kg in the data set with DBA/2 mice fell in the range of 50 to 70%. With `O=C1CCN(c2ccc(Oc3cccc(F)c3)c3ccccc23)C(=O)N1` [Example 345], the inhibition in vivo at 30 mg/kg with DBA/2 mice was 50 to 70%. As to `O=c1ccn(-c2ccc(Oc3ccccc3)nn2)c(=O)[nH]1` [Example 346, 1-(6-Phenoxypyridazin-3-Yl)Pyrimidine-2,4 (1H,3H)-Dione], the inhibition in vivo at 30 mg/kg with DBA/2 mice was 50 to 70%.
